Results published in the supplement of paper PMC12646585.
± gives the uncertainty stated by the source.

Tested on: TK6
Test: relative viability (MTT, 20-24 h post-exposure) vs solvent control; higher = less cytotoxic
Settings: exposure time: 4 h (S9 compounds: 3 h + 4 h recovery)
Description: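 Human TK6 lymphoblastoid cells were exposed for 4 h to three concentrations of each compound at four ring-trial labs. Compounds P, Q, R and CC were given for 3 h with rat liver S9 plus 4 h recovery. Relative survival was measured by MTT assay 20-24 h after exposure, as % viability relative to solvent control (mean with SD), in the Result 1 round with preselected concentrations.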

O=[N+]([O-])c1ccc(O)c([N+](=O)[O-])c1 [2,4-Dinitrophenol]
relative viability [%]
Settings	batch: 3, lab: Lab 1	batch: 3, lab: Lab 2	batch: 3, lab: Lab 3	batch: 3, lab: Lab 4
concentration: 0.11mM	92.2 ± 1.2	98.2 ± 5	71.1 ± 14	97.7 ± 3.1
concentration: 0.33mM	84.7 ± 2.5	85 ± 2.5	67.4 ± 1.1	98.6 ± 8.2
concentration: 1mM	58.6 ± 2.2	37.2 ± 10	63.9 ± 1.4	99.4 ± 6.2

Nc1ccc2cc3ccccc3cc2c1 [2-Aminoanthracene]
relative viability [%]
Settings	batch: 4, lab: Lab 1	batch: 4, lab: Lab 2	batch: 4, lab: Lab 3	batch: 4, lab: Lab 4
concentration: 0.22ug/mL	95.8 ± 6.6	97.3 ± 23	102 ± 11	96.3 ± 3
concentration: 0.67ug/mL	94.8 ± 3.9	87.8 ± 18	95.5 ± 8.5	93.5 ± 2.5
concentration: 2ug/mL	47 ± 5.6	16.8 ± 1.3	23.1 ± 0.8	9.75 ± 11

CC1(C)S[C@@H]2[C@H](NC(=O)[C@H](N)c3ccccc3)C(=O)N2[C@H]1C(=O)O [Ampicillin]
relative viability [%]
Settings	batch: 1, lab: Lab 1	batch: 1, lab: Lab 2	batch: 1, lab: Lab 3	batch: 1, lab: Lab 4
concentration: 0.11mM	102 ± 5.6	104 ± 3	115 ± 6.7	127 ± 17
concentration: 0.33mM	94.9 ± 3.7	115 ± 8.7	123 ± 5.7	126 ± 9.4
concentration: 1mM	99.9 ± 6.3	98.3 ± 12	121 ± 3.4	112 ± 9.2

c1ccc2c(c1)cc1ccc3cccc4ccc2c1c34 [Benzo[a]pyrene]
concentration: 10ug/mL
Settings	relative viability [%]
batch: 4, lab: Lab 1	67.8 ± 2.3
batch: 4, lab: Lab 2	35.7 ± 2
batch: 4, lab: Lab 3	66.3 ± 0.7
batch: 4, lab: Lab 4	75 ± 5.3

Cc1c(N)nc(C(CC(N)=O)NCC(N)C(N)=O)nc1C(=O)NC(C(=O)NC(C)C(O)C(C)C(=O)NC(C(=O)NCCc1nc(-c2nc(C(=O)NCCC[S+](C)C)cs2)cs1)C(C)O)C(O[C@@H]1O[C@@H](CO)[C@@H](O)[C@H](O)[C@@H]1O[C@H]1O[C@H](CO)[C@@H](O)[C@H](OC(N)=O)[C@@H]1O)c1cnc[nH]1.O=S(=O)([O-])O (some centres undefined) [Bleomycin (sulfate)]
Settings	relative viability [%]
concentration: 5ug/mL, batch: 2, lab: Lab 1	80.5 ± 4.2
concentration: 5ug/mL, batch: 2, lab: Lab 2	53.4 ± 7.1
concentration: 5ug/mL, batch: 2, lab: Lab 3	51 ± 6.2
concentration: 5ug/mL, batch: 2, lab: Lab 4	56.4 ± 1.8
concentration: 5ug/mL, batch: 3, lab: Lab 1	78 ± 4
concentration: 5ug/mL, batch: 3, lab: Lab 2	66 ± 7.1
concentration: 5ug/mL, batch: 3, lab: Lab 3	49.7 ± 3.8
concentration: 5ug/mL, batch: 3, lab: Lab 4	54.6 ± 2.8
concentration: 10ug/mL, batch: 1, lab: Lab 1	41.8 ± 3.7
concentration: 10ug/mL, batch: 1, lab: Lab 2	59.6 ± 4.6
concentration: 10ug/mL, batch: 1, lab: Lab 3	53 ± 3.7
concentration: 10ug/mL, batch: 1, lab: Lab 4	50.6 ± 1.6

Cn1c(=O)c2c(ncn2C)n(C)c1=O [Caffeine]
concentration: 2mM
Settings	relative viability [%]
batch: 1, lab: Lab 1	94.7 ± 2.1
batch: 1, lab: Lab 2	86.4 ± 4
batch: 1, lab: Lab 3	108 ± 4.5
batch: 1, lab: Lab 4	98.2 ± 4.2
batch: 2, lab: Lab 1	96.7 ± 1
batch: 2, lab: Lab 2	80.1 ± 13
batch: 2, lab: Lab 3	88.9 ± 6.5
batch: 2, lab: Lab 4	100 ± 7
batch: 3, lab: Lab 1	96.4 ± 2.7
batch: 3, lab: Lab 2	92.5 ± 5.4
batch: 3, lab: Lab 3	107 ± 2.4
batch: 3, lab: Lab 4	92.6 ± 11

O=C(O)CCCc1ccc(N(CCCl)CCCl)cc1 [Chlorambucil]
relative viability [%]
Settings	batch: 3, lab: Lab 1	batch: 3, lab: Lab 2	batch: 3, lab: Lab 3	batch: 3, lab: Lab 4
concentration: 0.44uM	95.2 ± 3.8	84.9 ± 7.7	80.8 ± 2.1	97.2 ± 12
concentration: 1.33uM	89.6 ± 3.8	95.9 ± 17	74.1 ± 1.5	92.3 ± 14
concentration: 4uM	78.9 ± 3.7	71.7 ± 8.3	67.2 ± 0.8	75.3 ± 14

C[C@@H]1C[C@@H]([C@H](O)CC2CC(=O)NC(=O)C2)C(=O)[C@@H](C)C1 [Cycloheximide]
relative viability [%]
Settings	batch: 1, lab: Lab 1	batch: 1, lab: Lab 2	batch: 1, lab: Lab 3	batch: 1, lab: Lab 4
concentration: 1.11uM	89.7 ± 6.7	85.7 ± 4.6	94.1 ± 0.6	86.8 ± 5.5
concentration: 3.33uM	64 ± 7.6	65.6 ± 6.2	72.2 ± 7.4	69.7 ± 4.6
concentration: 10uM	49.4 ± 6.1	46.1 ± 4.8	41.3 ± 2.9	57.4 ± 5.4

O.O=P1(N(CCCl)CCCl)NCCCO1 (centres undefined) [Cyclophosphamide]
relative viability [%]
Settings	batch: 4, lab: Lab 1	batch: 4, lab: Lab 2	batch: 4, lab: Lab 3	batch: 4, lab: Lab 4
concentration: 2.22uM	103 ± 4	94.2 ± 9.3	157 ± 11	80.3 ± 3.9
concentration: 6.67uM	96.49 ± 0.35	69 ± 2.4	107 ± 14	81.7 ± 1.3
concentration: 20uM	90.45 ± 0.81	47.2 ± 2.1	73.4 ± 3.3	58.4 ± 3.7

OC[C@@H](O)[C@@H](O)[C@H](O)[C@H](O)CO [D-Mannitol]
relative viability [%]
Settings	batch: 1, lab: Lab 1	batch: 1, lab: Lab 2	batch: 1, lab: Lab 3	batch: 1, lab: Lab 4
concentration: 0.11mM	90 ± 3.8	97 ± 6.5	145 ± 3.4	110 ± 6.5
concentration: 0.33mM	98.7 ± 5.1	104 ± 14	137 ± 5.8	107 ± 5.4
concentration: 1mM	103 ± 9.3	104 ± 12	139.3 ± 1	107 ± 5

C[C@@H]1C[C@H]2[C@@H]3CCC4=CC(=O)C=C[C@]4(C)[C@@]3(F)[C@@H](O)C[C@]2(C)[C@@]1(O)C(=O)CO [Dexamethasone]
relative viability [%]
Settings	batch: 3, lab: Lab 1	batch: 3, lab: Lab 2	batch: 3, lab: Lab 3	batch: 3, lab: Lab 4
concentration: 0.11mM	105 ± 6	103 ± 13	127 ± 13	112 ± 7.9
concentration: 0.33mM	101 ± 3.8	97.9 ± 5.6	142 ± 4.4	111 ± 12
concentration: 1mM	86.6 ± 7.7	86.4 ± 5.5	143 ± 5.6	92.2 ± 12

CCOS(C)(=O)=O [EMS (Ethyl methanesulfonate)]
relative viability [%]
Settings	batch: 2, lab: Lab 1	batch: 2, lab: Lab 2	batch: 2, lab: Lab 3	batch: 2, lab: Lab 4
concentration: 0.22mM	95.4 ± 3.9	105 ± 6.5	98.2 ± 3.5	103 ± 7.2
concentration: 0.67mM	91.7 ± 3	98.1 ± 5.8	96.6 ± 2.6	92.6 ± 6.2
concentration: 2mM	85.2 ± 3.3	84.6 ± 2.8	67.7 ± 1.2	80.4 ± 3.7

CCN(N=O)C(N)=O [ENU (N-Nitroso-N-ethylurea)]
relative viability [%]
Settings	batch: 2, lab: Lab 1	batch: 2, lab: Lab 2	batch: 2, lab: Lab 3	batch: 2, lab: Lab 4
concentration: 0.056mM	97.9 ± 10	87.58 ± 0.76	99.1 ± 3	101 ± 11
concentration: 0.167mM	92.2 ± 6.8	104 ± 2.7	93.5 ± 2.3	89.3 ± 6.6
concentration: 0.5mM	70.5 ± 4.1	95.6 ± 1.1	69.3 ± 3.2	76.1 ± 8.3

CCC1(c2ccccc2)C(=O)N=C([O-])NC1=O.[Na+] (centres undefined) [Phenobarbital sodium]
relative viability [%]
Settings	batch: 4, lab: Lab 1	batch: 4, lab: Lab 2	batch: 4, lab: Lab 3	batch: 4, lab: Lab 4
concentration: 0.11mM	98.3 ± 4.8	85.5 ± 11	149 ± 13	95.2 ± 10
concentration: 0.33mM	95.6 ± 4.8	84.2 ± 10	119 ± 15	96.8 ± 6.2
concentration: 1mM	95.7 ± 3.7	82.3 ± 8.5	116 ± 7.6	99.5 ± 8.9

CN[C@@H]1C[C@H]2O[C@@](C)([C@@H]1OC)n1c3ccccc3c3c4c(c5c6ccccc6n2c5c31)C(=O)NC4 [Staurosporine]
relative viability [%]
Settings	batch: 3, lab: Lab 1	batch: 3, lab: Lab 2	batch: 3, lab: Lab 3	batch: 3, lab: Lab 4
concentration: 3nm	104 ± 3.9	114 ± 16	130 ± 7.6	97.4 ± 3.9
concentration: 10nm	103 ± 4.5	99.1 ± 2.1	111 ± 5.5	91.4 ± 14
concentration: 30nm	97 ± 2.9	69.7 ± 3.1	69.7 ± 4.3	73.9 ± 7.5

CCN(CC)CCNC(=O)c1c(C)[nH]c(/C=C2\C(=O)Nc3ccc(F)cc32)c1C.O=C(O)C[C@H](O)C(=O)O [Sunitinib malate]
relative viability [%]
Settings	batch: 2, lab: Lab 1	batch: 2, lab: Lab 2	batch: 2, lab: Lab 3	batch: 2, lab: Lab 4
concentration: 2.22uM	103 ± 3	77.8 ± 4.1	91.3 ± 1.2	99.4 ± 4.7
concentration: 6.67uM	90.4 ± 3.5	64.7 ± 5.2	69 ± 1.6	86.4 ± 10
concentration: 20uM	64.6 ± 2	28.5 ± 4.9	37 ± 1.1	40.8 ± 3.6
